Test system: DOXO resistant cell line KB-V1
Test: Cytotoxicity of DOXO-loaded nanogel compounds vs free DOXO, MTT assay, resistant cells
Assay type: cell-based
Conditions: free DOXO up to 10 μM external concentration
Text: In order to use the nanogel compounds for anticancer therapy, the cytotoxicity of the DOXO-loaded nanogel compounds compared with free DOXO was studied in two different cell lines: sensitive-type HeLa cells and DOXO resistant cell line KB-V1. Thereby, squares denote PNIPAM-dPG/AMPS, circles denote PNIPAM-dPG/DMAEM, and triangles denote free DOXO.

COc1cccc2c1C(=O)c1c(O)c3c(c(O)c1C2=O)C[C@@](O)(C(=O)CO)C[C@@H]3O[C@H]1C[C@H](N)[C@H](O)[C@H](C)O1 [DOXO, doxorubicin]
cytotoxicity: no effect

Reference: patent US20180179386A1, “NANOGEL COMPOUND” (priority 2015, published 2018)
